Experimental data taken from ChEMBL document CHEMBL1143870, “A new insight into solid-state conformation of macrolide antibiotics” (Bioorg Med Chem, 2008).

Experiments:
[1] = Tmax in human at 500 mg, po administered as single dose; type: ADME, organism-based; conditions: in vivo
[2] = Elimination half life in human at 500 mg, po administered as single dose; type: ADME, organism-based; conditions: in vivo
[3] = Oral bioavailability in human at 500 mg administered as single dose; type: ADME, organism-based; conditions: in vivo
[4] = Cmax in human at 500 mg, po administered as single dose; type: ADME, organism-based; set-up: dose 500 mg, route oral; conditions: in vivo
[5] = Lipophilicity, log D at pH 8.0; type: physicochemical; conditions: buffer
Homo sapiens [6] = assay: AUC in human at 500 mg, po administered as single dose; type: ADME, organism-based, Plasma; conditions: in vivo
Homo sapiens [7] = assay: AUC in human at 150 mg, po administered as single dose; type: ADME, organism-based, Plasma; conditions: in vivo
[8] = Cmax in human at 150 mg, po administered as single dose; type: ADME, organism-based; set-up: dose 150 mg, route oral; conditions: in vivo
[9] = Elimination half life in human at 150 mg, po administered as single dose; type: ADME, organism-based; conditions: in vivo
[10] = Oral bioavailability in human at 150 mg administered as single dose; type: ADME, organism-based; conditions: in vivo
[11] = Tmax in human at 150 mg, po administered as single dose; type: ADME, organism-based; conditions: in vivo

| Tmax [1] | half-life [2] | bioavailability [3] | Cmax [4] | logD [5] | AUC (Homo sapiens [6]) | AUC (Homo sapiens [7]) | Cmax [8] | half-life [9] | bioavailability [10] | Tmax [11] | SMILES |
| --- | --- | --- | --- | --- | --- | --- | --- | --- | --- | --- | --- |
| 2 h | 4.9 h | 55% | 2410 ng/mL | 3.9 | 18900 ng·h/mL | – | – | – | – | – | CC[C@H]1OC(=O)[C@H](C)[C@@H](O[C@H]2C[C@@](C)(OC)[C@@H](O)[C@H](C)O2)[C@H](C)[C@@H](O[C@@H]2O[C@H](C)C[C@H](N(C)C)[C@H]2O)[C@](C)(OC)C[C@@H](C)C(=O)[C@H](C)[C@@H](O)[C@]1(C)O [CLARITHROMYCIN] |
| 1 h | 1.5 h | 18% | 1900 ng/mL | – | 5800 ng·h/mL | – | – | – | – | – | CC[C@H]1OC(=O)[C@H](C)[C@@H](O[C@H]2C[C@](C)(OC)[C@H](O)[C@@H](C)O2)[C@H](C)[C@@H](O[C@@H]2O[C@@H](C)C[C@@H](N(C)C)[C@@H]2O)[C@](C)(O)C[C@@H](C)C(=O)[C@H](C)[C@@H](O)[C@]1(C)O [ERYTHROMYCIN A DIHYDRATE] |
| – | – | – | – | 2.5 | – | 81000 ng·h/mL | 7900 ng/mL | 10.5 h | 72% | 2.2 h | CC[C@H]1OC(=O)[C@H](C)[C@@H](O[C@H]2C[C@@](C)(OC)[C@@H](O)[C@H](C)O2)[C@H](C)[C@@H](O[C@@H]2O[C@H](C)C[C@H](N(C)C)[C@H]2O)[C@](C)(O)C[C@@H](C)/C(=N\OCOCCOC)[C@H](C)[C@@H](O)[C@]1(C)O [ROXITHROMYCIN] |
